Experimental data from ChEMBL document CHEMBL1124908, “Synthesis and antiviral activity of 3'-deoxy-3'-C-hydroxymethyl nucleosides” (J Med Chem, 1990).
Values after ≈ are worked out from the molar mass of the structure shown.

What was measured:
CV-1 = test: Inhibitory concentration which is active against Varicella zoster virus (VZV) in CV-1 cells; type: functional, cell-based, Cercopithecidae; conditions: Chlorocebus aethiops
MRC5 = test: Inhibitory concentration which is active against Varicella zoster virus (VZV) in MRC-5 cells; type: functional, cell-based; conditions: Homo sapiens
Human alphaherpesvirus 3 [1] = test: Anti-viral activity which is required for the inhibition of VZV (Varicella zoster virus ); type: functional, organism-based
Human alphaherpesvirus 1 = test: Minimum inhibitory concentration which is active against herpes simplex virus type-1 (HSV-1); value ranges from 0.007-0.01 ug/mL; type: functional
Human alphaherpesvirus 3 [2] = test: Minimum inhibitory concentration which is active against Varicella zoster virus (VZV); value ranges from 0.0002-0.003 ug/mL; type: functional

Row | Structure (SMILES) | IC50 (CV-1) | IC50 (MRC5) | IC50 (Human alphaherpesvirus 3 [1]) | MIC (Human alphaherpesvirus 1) | MIC (Human alphaherpesvirus 3 [2])
1 | O=c1[nH]c(=O)n(C2O[C@H](CO)[C@H](CO)[C@H]2O)cc1/C=C/Br (stereo not given in full) | 4400 ng/mL (≈ 12.1 µM) | 15300 ng/mL (≈ 42.1 µM) |  |  | 
2 | O=c1[nH]c(=O)n([C@H]2C[C@H](O)[C@@H](CO)O2)cc1/C=C/Br [BRIVUDINE] |  |  | 2.4 ng/mL (≈ 0.0072 µM) | 7 ng/mL (≈ 0.021 µM) | 0.2 ng/mL (≈ 0.0006 µM)
